In patent publication US10428124B2, “Timothy grass allergens and methods and uses for immune response modulation” (LA JOLLA INSTITUTE FOR ALLERGY AND IMMUNOLOGY, priority 2012, dated 2019):

Key:
[1] = system: PBMCs from TG allergic donors; test: IL-5 ELISPOT of TG extract-expanded PBMCs from TG allergic donors (peptide pools, single peptides, TG extract); type: cell-based, human
Experimental: Each donor was recruited following Institutional Review Board approval (Federal Wide Assurance number 00000032) and informed consent and assigned a study identification number. Donors were tested for allergen reactivity by skin prick tests to extracts from 32 common allergens. TG allergic donors were identified as having a skin reaction with a wheal of 5 mm in diameter to TG and a clinical history consistent with seasonal grass pollen allergy. Donors that had received specific immunotherapy were excluded. Non-allergic donors were identified as having negative skin prick tests to all allergens and no clinical history of allergy.
PBMCs were isolated by density gradient centrifugation from one unit of blood (˜450 ml) and cryo-preserved as described previously (12). For in vitro expansions, PBMCs were thawed and cultured in RPMI 1640 (Ω Scientific, Tarzana, Calif.) supplemented with 5% human AB serum (Cellgro, Herndon, Va.) at a density of 2×10^6 cells/ml in 24-well plates (BD Biosciences, San Jose, Calif.) and stimulated with TG pollen extract ([…]) (Greer, Lenoir, N.C.). Cells were kept at 37° C., 5% CO2 and additional IL-2 and IL-7 (10 U/ml, eBioscience, San Diego, Calif.) was added every 3 d after initial antigenic stimulation. On day 14, cells were harvested and screened for reactivity against TG-specific peptide pools (16-25 peptides/pool, averaging 20 peptides/pool). On day 17, peptides from positive pools were tested individually to identify the reactive epitopes.
The production of IL-5 from cultured PBMCs in response to antigen stimulation was measured by ELISPOT as described previously (12). Briefly, 1×10^5 cells/well were incubated with peptide, peptide pool or TG extract (10 μg/ml, 5 μg/ml and 50 μg/ml, respectively). After 24 h, cells were removed and plates were incubated with 2 μg/ml biotinylated anti-human IL-5 Ab (Mabtech) at 37° C. After 2 h, plates were washed and avidin-peroxidase-complex was added (Vector Laboratories, Burlingame, Calif.) for 1 h at RT. Peroxidase-conjugated spots were developed with 3-amino-9-ethylcarvazole solution (Sigma-Aldrich, St. Louis, Mo.). Criteria for peptide pool positivity were 100 SFCs/106 PBMCs, p 0.05, and a stimulation index (SI) 2. Criteria for individual peptides were the same except a minimum of 20 SFCs was counted as positive.

human IgE = test: 2D gel immunoblot of TG extract with serum pool from 8 TG-allergic donors, IgE reactivity; type: binding; conditions: for Antibody reactivity IgE/IgG: IgE: reactivity of the parent antigen (TG protein) from which the peptide is predicted, E+/E−; for Antibody reactvity IgE/IgG: IgE: E− = not IgE reactive
Experimental: (§1) 2D DIGE (Difference Gel Electrophoresis) analysis. The complete 2D DIGE analysis was performed by Applied Biomics (Hayward, Calif., US). Briefly, TG extract was run on two 2D gels (3-10 pH range, 12% SDS-acrylamide gel), one was Coomassie blue stained, the other was blotted onto a nitrocellulose membrane. The membrane was then incubated with 5% dried milk in PBS/0.05% Tween to block non-specific binding and subsequently probed with a serum pool from 8 TG-allergic individuals at a dilution of 1:250. IgE and IgG binding was detected using goat anti-human IgE and rabbit anti-human IgG (Sigma-Aldrich, St. Louis, Mo.) and visualized using Cy2-conjugated donkey anti-goat IgG and Cy5-conjugated donkey […] IgG antibodies (Biotium, Hayward, Calif.).
(§2) Mass spectral protein identification was performed by Applied Biomics (Hayward, Calif., US). Briefly, spots of interest were selected from the 2D blot and the corresponding spots were identified on the stained SDS gel and cut out, washed several times to remove staining dye and other inhibitory chemicals. The spots were then dried to absorb maximum digestion buffer. Dried 2D gel spots were rehydrated in digestion buffer containing trypsin. Proteins were digested in-gel at 37° C. and then extracted from the gel with TFA extraction buffer. Subsequently the peptides were desalted using C-18 Zip-tips (Millipore) and mixed with CHCA matrix (alpha-cyano-4-hydroxycinnamic acid) and spotted into wells of a MALDI plate. Mass spectra of the peptides in each sample were obtained using an Applied Biosystems Proteomics Analyzer. The spectra were compared to the amino acid sequences encoded by putative ORFs from the de novo assembled TG pollen transcripts. […] The amino acid sequences encoded by these ORFs were clustered using a custom script at a sequence similarity threshold of 90% to group together highly similar protein sequences. These sequences are encoded by different transcripts from the current assembly, which could arise from splice variants, allelic variation between cells of TG pollen, and from gene families with multiple members. Amino acid sequences that form one cluster are assigned one putative protein ID (Table 1).

human IgG = test: 2D gel immunoblot of TG extract with serum pool from 8 TG-allergic donors, IgG reactivity; type: binding; conditions: for Antibody reactivity IgE/IgG: IgG: reactivity of the parent antigen (TG protein) from which the peptide is predicted, G+/G−; for Antibody reactvity IgE/IgG: IgG: G+ = IgG reactive, G− = not
Experimental: as §1, §2

[2] = system: PBMCs from TG allergic donors; test: IFNg ELISPOT of TG extract-expanded PBMCs from TG allergic donors (single peptides); type: cell-based, human; conditions: T cell recognition in TG allergic patients; for Total response IFNg Events: number of positive events
[3] = system: PBMCs from TG allergic donors; test: as above; type: cell-based, human; conditions: for Total response IFNg Events: number of positive response events
[4] = system: PBMCs from TG allergic donors; test: as above; type: cell-based, human; conditions: for Total response IFNg Events: number of positive response events in TG allergic patients; for Total response IFNg SFC: TG allergic patients
[5] = system: PBMCs from TG allergic donors; test: IFNg ELISPOT of TG extract-expanded PBMCs (single peptides); type: cell-based, human; conditions: for Total response IFNg SFC: 15-mer peptide; for Total response IFNg Events: number of positive response events to the 15-mer peptide
[6] = IL-5, number of positive response events
[7] = T cell recognition in TG allergic patients, number of positive events
[8] = E+ / E− part of the cell, reactivity of the parent antigen
[9] = IgE reactivity of the parent TG antigen
[10] = G+ / G− part of the cell, reactivity of the parent antigen
[11] = IgG reactivity of the parent TG antigen
[12] = T cell recognition in TG allergic patients
[13] = number of positive response events in TG allergic patients
[14] = number of positive response events to the 15-mer peptide
[15] = reactivity of the parent antigen

| Substance | Total response IL-5 Events [1, 6] | Total response IL-5 Events [1, 7] | Antibody reactvity IgE/IgG (IgE part) (human IgE; [8]) | Antibody reactvity IgE/IgG (IgE part) (human IgE; [9]) | Antibody reactvity IgE/IgG (IgG part) (human IgG; [10]) | Antibody reactvity IgE/IgG (IgG part) (human IgG; [11]) | Total response IFNg Events [2] | Total response IFNg Events [3] | Total response IFNg SFC [3] [SFC] | Total response IL-5 Events [1, 13] | Antibody reactivity IgE/IgG: IgE (human IgE) | Antibody reactivity IgE/IgG: IgG (human IgG) | Total response IFNg Events [4] | Total response IFNg SFC [4] [SFC] | also measured |
| --- | --- | --- | --- | --- | --- | --- | --- | --- | --- | --- | --- | --- | --- | --- | --- |
| 83 (TIVASGIENMKIFTR; Phleum pratense) [Peptide 83] | 0 | 0 | E+ | E+ | G+ | G+ | 1 | 1 | 293 |  |  |  |  |  | Total response IFNg SFC [2]: 293 SFC |
| 141 (LLGYLLWVVAIRRPR; Phleum pratense) [Peptide 141] | 1 | 1 | E+ | E+ | G+ | G+ | 0 | 0 |  |  |  |  |  |  | Total response IL-5 SFC ([1]; IL-5, total SFC): 110 SFC; Total response IL-5 SFC [1, 12]: 110 SFC |
| 350 (LKDGSTYSFRFSFIV; Phleum pratense) [Peptide 350] | 1 | 1 | E+ | E+ | G+ | G+ | 0 | 0 |  |  |  |  |  |  | Total response IL-5 SFC ([1]; IL-5, total SFC): 20 SFC; Total response IL-5 SFC [1, 12]: 20 SFC |
| 411 (SSTRGWCSRRRAGRG; Phleum pratense) [Peptide 411] | 0 |  | E− |  | G+ |  |  | 0 |  | 0 | E− | G+ | 0 |  |  |
| 455 (KRPPRCCQDLVVLPL; Phleum pratense) [Peptide 455] |  |  |  |  |  |  |  |  |  | 0 | E− | G+ | 0 |  |  |
| 527 (TVSDEYLAAVAKARR; Phleum pratense) [Peptide 527] | 0 | 0 | E+ | E+ | G+ | G+ | 1 | 1 | 73 |  |  |  |  |  | Total response IFNg SFC [2]: 73 SFC |
| 4269 (GVIAGLNVLRIINEP; Phleum pratense) [Peptide 4269] | 0 |  | E− |  | G+ |  |  | 1 | 33 | 0 | E− | G+ | 1 | 33 |  |
| 5621 (KIASFLDPDGWKVVL; Phleum pratense) [Peptide 5621] |  |  |  |  |  |  |  |  |  | 0 | E− | G− | 1 | 343 | Total response IL-5 Events [1, 14]: 0; Antibody reactvity IgE/IgG: IgE (human IgE; [15]): E−; Antibody reactvity IgE/IgG: IgG (human IgG; [15]): G−; Total response IFNg SFC [5]: 343 SFC; Total response IFNg Events [5]: 1 |
| 6119 (KVSKVLNTYIFLLYL; Phleum pratense) [Peptide 6119] |  |  |  |  |  |  |  |  |  | 1 | E− | G− | 0 |  | Total response IL-5 SFC ([1]; 15-mer peptide): 27 SFC; Total response IL-5 SFC ([1]; TG allergic patients): 27 SFC; Total response IL-5 Events [1, 14]: 1; Antibody reactvity IgE/IgG: IgE (human IgE; [15]): E−; Antibody reactvity IgE/IgG: IgG (human IgG; [15]): G−; Total response IFNg Events [5]: 0 |
| 48269 (YAVGQKIKAYLEAES; Phleum pratense) [Peptide 48269] | 0 |  | E− |  | G+ |  |  | 1 | 297 | 0 | E− | G+ | 1 | 297 |  |
| 64111 (KNPLKFDNTYFTELL; Phleum pratense) [Peptide 64111] |  |  |  |  |  |  |  |  |  | 1 | E− | G− | 1 | 47 | Total response IL-5 SFC ([1]; 15-mer peptide): 100 SFC; Total response IL-5 SFC ([1]; TG allergic patients): 100 SFC; Total response IL-5 Events [1, 14]: 1; Antibody reactvity IgE/IgG: IgE (human IgE; [15]): E−; Antibody reactvity IgE/IgG: IgG (human IgG; [15]): G−; Total response IFNg SFC [5]: 47 SFC; Total response IFNg Events [5]: 1 |
